Patent US20030109418A1, “Methods for identifying compounds for inhibition of neoplastic lesions, and pharmaceutical compositions containing such compounds” (priority 1999, published 2003)
pIC50: −log10 of the molar value. Read-outs that look alike come from different tables or passages of the source.

Columns and labels:
[1] = tested on: HT-29 human colon carcinoma cell line; assay: Growth inhibition, SRB assay, HT-29; assay type: cell-based; set-up: Growth Inhibition: key to the marks not given beside the values; settings: for Growth Inhibition: qualitative activity profile; for pIC50: HT-29 treated for 6 days, SRB assay, read-out: Growth inhibition (IC50)
[2] = target: T1, purified cyclooxygenase (Type 1, COX-I) from ram seminal vesicles (Ovis aries, UniProt P05979); assay: COX inhibition assay, purified cyclooxygenase; assay type: biochemical; settings: for COX Inhibition: qualitative activity profile
T1 construct: using purified cyclooxygenase from ram seminal vesicles as described previously; tissue Cayman Chemical, Ann Arbor, Mich; (named in the general protocol only); host or cells: ram seminal vesicles
T1 sequence (P05979 25-600): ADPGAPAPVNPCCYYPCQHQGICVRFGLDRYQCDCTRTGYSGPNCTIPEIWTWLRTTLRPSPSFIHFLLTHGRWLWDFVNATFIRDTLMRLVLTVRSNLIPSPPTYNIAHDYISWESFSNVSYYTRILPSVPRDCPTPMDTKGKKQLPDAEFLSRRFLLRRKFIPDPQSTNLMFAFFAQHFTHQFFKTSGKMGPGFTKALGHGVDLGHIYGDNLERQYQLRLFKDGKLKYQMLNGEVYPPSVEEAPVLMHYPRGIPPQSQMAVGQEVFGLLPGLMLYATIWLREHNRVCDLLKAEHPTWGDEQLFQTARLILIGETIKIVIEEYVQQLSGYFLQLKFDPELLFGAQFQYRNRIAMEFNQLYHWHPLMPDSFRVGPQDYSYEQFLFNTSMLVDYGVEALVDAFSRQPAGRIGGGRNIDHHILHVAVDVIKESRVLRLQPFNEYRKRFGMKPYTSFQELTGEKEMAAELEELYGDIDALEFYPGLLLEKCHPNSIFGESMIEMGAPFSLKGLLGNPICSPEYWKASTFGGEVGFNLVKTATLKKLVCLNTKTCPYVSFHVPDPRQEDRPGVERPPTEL

[3] = tested on: HT-29 colon adenocarcinoma cells; assay: Apoptosis by DNA fragmentation assay in HT-29; assay type: cell-based, human; settings: qualitative activity profile; further: key: −: Not active; +: Slightly active; ++: Moderately active; +++: Strongly active; ++++: Highly active
[4] = tested on: cGMP PDE purified from human colon HT-29 cultured tumor cells; assay: cGMP PDE inhibition assay; assay type: biochemical; settings: for PDE Inhibition: qualitative activity profile
[5] = tested on: premalignant lesions in mouse mammary gland organ culture; assay: Mammary gland organ culture model; assay type: cell-based; settings: for Mammary Gland Organ Culture: qualitative activity profile; on mammary gland organ culture: key: −: Not active; +: Slightly active; ++: Moderately active; +++: Strongly active; ++++: Highly active
Excerpt: Test compounds identified by the above methods can be tested for antineoplastic activity by their ability to inhibit the incidence of pre-neoplastic lesions in a mammary gland organ culture system. This mouse mammary gland organ culture technique has been successfully used by other investigators to study the effects of known antineoplastic agents such as certain NSAIDs, retinoids, tamoxifen, selenium, and certain natural products, and is useful for validation of the screening method of the present invention.
For example, female BALB/c mice can be treated with a combination of estradiol and progesterone daily, in order to prime the glands to be responsive to hormones in vitro. The animals are sacrificed, and thoracic mammary glands are excised aseptically and incubated for ten days in growth media supplemented with insulin, prolactin, hydrocortisone, and aldosterone. DMBA (7,12-dimethylbenz(a)anthracene) is added to medium to induce the formation of premalignant lesions. Fully developed glands are then deprived of prolactin, hydrocortisone, and aldosterone, resulting in the regression of the glands but not the pre-malignant lesions.
The test compound is dissolved in DMSO and added to the culture media for the duration of the culture period. At the end of the culture period, the glands are fixed in 10% formalin, stained with alum carmine, and mounted on glass slides. The incidence of forming mammary lesions is the ratio of the glands with mammary lesions to […]. The incidence of mammary lesions in test compound treated glands is compared with that of the untreated glands.
The extent of the area occupied by the mammary lesions can be quantitated by projecting an image of the gland onto a digitation pad. The area covered by the gland is traced on the pad and considered as 100% of the area. The space covered by each of the non-regressed structures is also outlined on the digitization pad and quantitated by the computer.
Mammary gland organ culture experiment were performed as previously described (Mehta and Moon, Cancer Research, 46: 5832-5835, 1986). […] The data support the hypothesis that cyclooxygenase inhibition is not necessary for the anti-neoplastic properties of desired compounds.

[6] = target: T2, cGMP binding sites of the GST-cGB-PDE5 protein (Homo sapiens, UniProt O76074); assay: cGMP binding assay with GST-cGB-PDE5 fusion protein; settings: for competition with cGMP binding at high concentration: 100 μM competitor, cGMP 2 μM
T2 construct: made in house; host or cells: E. coli BL21 (DE3)

HT-29 cells = assay: Apoptosis and necrosis by morphology (acridine orange and ethidium bromide); assay type: cell-based, human; settings: HT-29 treated for 6 days
Excerpt: Apoptosis occurs naturally during normal tissue turnover and during embryonic development of organs and limbs. Apoptosis also is induced by cytotoxic T-lymphocytes and natural killer cells, by ionizing radiation and by certain chemotherapeutic drugs. Inappropriate regulation of apoptosis is thought to play an important role in many pathological conditions including cancer, AIDS, or Alzheimer's disease, etc. Compounds can be screened for induction of apoptosis using cultures of tumor cells maintained under conditions as described above. Treatment of cells with test compounds involves either pre- or post-confluent cultures and treatment for two to seven days at various concentrations. Apoptotic cells are measured in both the attached and “floating” compartments of the cultures. Both compartments are collected by removing the supernatant, trypsinizing the attached cells, and combining both preparations following a centrifugation wash step (10 minutes, 2000 rpm). The protocol for treating tumor cell cultures with sulindac and related compounds to obtain a significant amount of apoptosis has been described in the literature. (See, Piazza, G. A., et al., Cancer Research, 55:3110-16, 1995, which is incorporated herein by reference). The novel features include collecting both floating and attached cells, identification of the optimal treatment times and dose range for observing apoptosis, and identification of optimal cell culture conditions.
Following treatment with a compound, cultures can be assayed for apoptosis and necrosis by florescent microscopy following labeling with acridine orange and ethidium bromide. The method for measuring apoptotic cell number has previously been described by Duke & Cohen, “Morphological And Biochemical Assays Of Apoptosis,” Current Protocols In Immunology, Coligan et al., eds., 3.17.1-3.17.16 (1992, which is incorporated herein by reference).
For example, floating and attached cells can be collected by trypsinization and washed three times in PBS. Aliquots of cells can be centrifuged. The pellet can then be re-suspended in media and a dye mixture containing acridine orange and ethidium bromide prepared in PBS and mixed gently. The mixture can then be placed on a microscope slide and examined for morphological features of apoptosis.
Reference compounds and test compounds were analyzed for their novel PDE inhibitory activity in accordance with the protocols for the assay, supra. […] Apoptotic and necrotic cell death was determined previously (Duke and Cohen, In: Current Protocols in Immunology, 3.17.1-3.17.16, New York, John Wiley and Sons, 1992). […] All data were collected from the same experiment.
The apoptosis inducing activity for a series of phosphodiesterase inhibitors was determined. HT-29 cell were treated for 6 days with various inhibitors of phosphodiesterase. Apoptosis and necrosis were determined morphologically after acridine orange and ethidium bromide labeling in accordance with the assay described, supra.

[7] = target: T3, PDE peak A (PDE5) from SW480 cells (Homo sapiens, UniProt O76074); assay: cGMP hydrolysis inhibition, PDE peak A from SW480; assay type: biochemical
T3 construct: endogenous in cells; host or cells: SW480 colon cancer cells, DEAE-Trisacryl M fraction

[8] = tested on: cGMP and cAMP levels in HT-29 cells; assay: Cyclic nucleotide levels in cultured cells by radioimmunoassay; assay type: cell-based, human; settings: HT-29 cells treated 30 minutes

CC(=O)NC(CSC12CC(=O)OC1(C)/C(=C/c1ccc(S(C)(=O)=O)cc1)c1ccc(F)cc12)C(=O)O (racemic) [D, rac-(E)-1-(butan-1′,4′-olido)-[3′,4′: 1,2]-6-fluoro-2-methyl-3-(p-methylsulfonylbenzylidene)-1S-indanyl-N-acetylcysteine]
Growth-inhibitory activity, % Inhibition at 100 μM [1]: 78%
Growth Inhibition [1]: ++
Cyclooxygenase inhibitory activity, % Inhibition at 100 μM [2]: <25%
COX Inhibition [2]: −
Apoptosis [3]: −
PDE Inhibition [4]: −
Mammary Gland Organ Culture [5]: −

CCCCOC1C2OP(=O)(O)OCC2OC1n1cnc2c(N)ncnc21 (centres unmarked) [2′-O-butyl-cAMP]
competition with cGMP in binding of GST-cGB-PDE5 ([6]; 3H-cGMP 2 μM): did not compete with cGMP in binding

CCCCOC1C2OP(=O)(O)OCC2OC1n1cnc2c(=O)[nH]c(N)nc21 (centres unmarked) [2′-O-butyl-cGMP]
competition with cGMP in binding of GST-cGB-PDE5 ([6]; 3H-cGMP 2 μM): did not compete with cGMP in binding

COc1nc2c([nH]1)c(=O)n(C)c(=O)n2CC(C)C [8-methoxy-IBMX]
pIC50 [1]: < 3.70
% Apoptosis (HT-29 cells): 2%
% Necrosis (HT-29 cells): 1%

Nc1nc2c(nc(Br)n2[C@@H]2O[C@@H]3COP(=O)(O)O[C@H]3[C@H]2O)c(=O)[nH]1 [Compound 8-bromo-cGMP]
competition with cGMP binding at high concentration [6]: can partially compete

CC1=C(CC(=O)O)c2cc(F)ccc2/C1=C\c1ccc(Cl)cc1 [Compound C, (Z)-5-Fluoro-2-methyl-1-(p-chlorobenzylidene)-3-acetic acid]
Growth-inhibitory activity, % Inhibition at 100 μM [1]: 80%
cGMP PDE inhibitory activity, % Inhibition at 10 μM ([4]; 10 μM): <25%

Nc1ncnc2c1ncn2[C@@H]1O[C@@H]2COP(=O)(O)O[C@H]2[C@H]1O [Cyclic AMP]
competition with cGMP in binding of GST-cGB-PDE5 [6]: did not compete with cGMP in binding

O=c1[nH]cnc2c1ncn2[C@@H]1O[C@@H]2COP(=O)(O)O[C@H]2[C@H]1O [Cyclic IMP]
competition with cGMP binding at high concentration [6]: can partially compete

CC1=C(CC(=O)N(C2CCCCC2)C2CCCCC2)c2cc(F)ccc2/C1=C\c1ccc(S(C)(=O)=O)cc1 [F, (Z)-5-Fluoro-2-methyl-1-(p-methylsulfonylbenzylidene)-3-indenylacetamide, N,N′-dicyclohexyl]
Growth Inhibition [1]: ++
COX Inhibition [2]: −
Apoptosis [3]: +
PDE Inhibition [4]: −
Mammary Gland Organ Culture [5]: −

CC(C)Cn1c(=O)n(C)c(=O)c2[nH]cnc21 [IBMX]
pIC50 [1]: < 4.00
% Apoptosis (HT-29 cells): 4%
% Necrosis (HT-29 cells): 13%

CC1(C)C(=O)Nc2ccc(C3=NNC(=O)CC3)cc21 [Indolidan]
Ratio (IC50 Peak A/Peak B) [7]: <0.31

Clc1cccc(Nc2nnc(-c3ccccc3)c3ccccc23)c1 [MY5445, 1-(3-chloroanilino)-4-phenyphthalazine]
pIC50 [1]: 5.30
Growth Inhibition [1]: +++
Cyclooxygenase inhibitory activity, % Inhibition at 100 μM [2]: 94%
COX Inhibition [2]: ++++
Apoptosis [3]: +++
PDE Inhibition [4]: +++
% Apoptosis (HT-29 cells): 80%
% Necrosis (HT-29 cells): 5%
Mammary Gland Organ Culture [5]: +

CCCCOc1cc(CC2CNC(=O)N2)ccc1OC (centres unmarked) [RO-20-1724]
pIC50 [1]: < 3.70
% Apoptosis (HT-29 cells): 11%
% Necrosis (HT-29 cells): 2%

COc1ccc(C2CNC(=O)C2)cc1OC1CCCC1 (centres unmarked) [Rolipram]
effect on cAMP levels [8]: increased cAMP

CCCOc1ccccc1-c1nc2nn[nH]c2c(=O)[nH]1 [Zaprinast]
competition with cGMP in binding of GST-cGB-PDE5 ([6]; 3H-cGMP 2 μM): do not bind to the cGMP binding sites of PDE5

Nc1ccn([C@@H]2O[C@@H]3COP(=O)(O)O[C@H]3[C@H]2O)c(=O)n1 [cCMP]
competition with cGMP in binding of GST-cGB-PDE5 ([6]; 3H-cGMP 2 μM): did not compete with cGMP in binding

O=c1ccn([C@@H]2O[C@@H]3COP(=O)(O)O[C@H]3[C@H]2O)c(=O)[nH]1 [cUMP]
competition with cGMP in binding of GST-cGB-PDE5 ([6]; 3H-cGMP 2 μM): did not compete with cGMP in binding

CC1=C(CC(=O)O)c2cc(F)ccc2/C1=C\c1ccc([S+](C)[O-])cc1 (centres unmarked) [sulindac]
inhibition of the formation of premalignant lesions ([5]; mammary gland organ culture): effectively inhibit the formation of premalignant lesions

rac-(E)-1-(butan-1′, 4′-olido)-[3′, 4′: 1,2]-6-fluoro-2-methyl-3-(p-methylsulfonylbenzylidene)-1S-indanyl-glutathione)
Growth Inhibition [1]: ++
COX Inhibition [2]: −
Apoptosis [3]: −
PDE Inhibition [4]: −
Mammary Gland Organ Culture [5]: −

ribo-(E)-1-Triazolo-[2′, 3′: 1″, 3″]-1-(butan-1′, 4′-olido)-[3′, 4′: 1, 2]-6-flouro-2-methyl-3-(p-methylsulfonylbenzylidene)-indan [G]
Growth Inhibition [1]: +++
COX Inhibition [2]: −
Apoptosis [3]: ++
PDE Inhibition [4]: −
Mammary Gland Organ Culture [5]: +++
